The data set has as its system rebuilt skin (for example Epiderm, Episkin or Skinethic). In words: Penetration rate of 5,6-dihydroxyindole through rebuilt skin in static diffusion cells, VIS spectrophotometry of oxidation products. In kind it is in vitro ADME. Conditions: 5 mM final concentration, 16 hour coating at an infinite dose. As for the experimental part:
The 5,6-dihydroxyindole mixture with the system limiting the transcutaneous passage has been prepared fresh by adding an system equivalent volume (=1 mM MnCl2 in 1 M NaHCO3; pH=10) to an aqueous solution of 10 mM 5,6-dihydroxyindole. Then, it has been coated on rebuilt skin (for example Epiderm® from Mattek, Inc., Episkin® from Episkin SNC or Skinethic® from Skinethic Laboratories) placed in diffusion cells in a static diffusion mode at a dose of 250 mg·cm^2 for 16 hours. The analysis of the penetration rates of 5,6-dihydroxyindole through the skin has been conducted through VIS spectrophotometry through the oxidation products thereof. The 5,6-dihydroxyindole range has been prepared as follows. A plurality of dilutions from 0 to 0.5 mM 5,6-dihydroxindole in receiving liquid has been left for 16 hours at 32° C. for forming oxidation products in the form of a pigment. Such pigments absorb visible light (VIS) (“scattering” effect) depending on their concentration, which is directly related to the initial 5,6-dihydroxyindole concentration. Thus, the 5,6-dihydroxyindol range has been obtained through VIS absorption of such pigments formed after 5,6-dihydroxyindole oxydation. A 1:1 mixture between 10 mM 5,6-dihydroxyindole and distilled water has been used as a control. […]

On to `Oc1cc2cc[nH]c2cc1O` [5,6-dihydroxyindole], for which the “penetration rate of the 5,6-dihydroxyindole” value is reported as “approximately 3 % of the dose coated” (with no system (control mixture, 1:1 with distilled water)) and “lower than 0.5%” (with the system (1 mM MnCl2 in 1 M NaHCO3, pH 10, equivalent volume)).

(Values after patent US20040040097A1, “Coloring composition for keratin fibres comprising a system limiting the transcutaneous passage of an oxidation dye” (L'OREAL, priority 2002, published 2004).)
